# Data reported in patent publication US20130344026A1, “Dimeric Smac Mimetics” (priority 2009, published 2013).
# Where two headings read alike, the source gives them in different places.
# Tested on: PANC-1 cells
# Assay: cell viability assay in PANC-1 cells (compound alone, + 100 ng/ml TNFa, + 300 ng/ml TRAIL)
# Assay type: cell-based
# [1] = Homo sapiens, PANC-1, compound alone, Tables 6-10, read-out: IC50 (μM) in cell viability assay in PANC-1 cells: Compound alone
# [2] = with 100 ng/ml TNFa, Tables 6-10, read-out: IC50 (μM) in cell viability assay in PANC-1 cells: Compound + 100 ng/ml TNFa
# [3] = with 300 ng/ml TRAIL, Tables 6-10, read-out: IC50 (μM) in cell viability assay in PANC-1 cells: Compound + 300 ng/ml TRAIL
# [4] = Homo sapiens, PANC-1 cells, compound alone, read-out: IC50 (uM) in cell viability assay in PANC-1 cells, Cmpnd alone
# [5] = Homo sapiens, PANC-1, compound alone, Tables 15-18, read-out: IC50 (uM) in cell viability assay in PANC-1 cells: Cmpnd alone
# [6] = with 100 ng/ml TNFa, Tables 15-18, read-out: IC50 (uM) in cell viability assay in PANC-1 cells: Cmpnd + 100 ng/ml TNFa
# [7] = with 300 ng/ml TRAIL, Tables 15-18, read-out: IC50 (uM) in cell viability assay in PANC-1 cells: Cmpnd + 300 ng/ml TRAIL
SMILES,IC50 [1] [µM],IC50 [2] [µM],IC50 [3] [µM],also measured
CN[C@@H](C)C(=O)NC(C(=O)N[C@@H](CCC(=O)NCc1cn([C@H]2C[C@@H](C(=O)N[C@@H]3CCCc4ccccc43)N(C(=O)[C@@H](NC(=O)[C@H](C)NC)C(C)(C)C)C2)nn1)C(=O)N[C@H](C)C(C)C)C(C)C (stereo partly shown) [Compound 202],> 1,0.679,0.674,
CN[C@@H](C)C(=O)N[C@H](C(=O)N1C[C@@H](NC(=O)c2ccc(C#Cc3ccc(C(=O)N[C@H]4C[C@@H](C(=O)N[C@@H]5CCCc6ccccc65)N(C(=O)[C@@H](NC(=O)[C@H](C)NC)C(C)(C)C)C4)cc3)cc2)C[C@H]1C(=O)N[C@@H]1CCCc2ccccc21)C(C)(C)C [Compound P3-100],,,,"IC50 [4]: > 1 µM; IC50 (PANC-1 cells, + 100 ng/ml TNFa, read-out: IC50 (uM) in cell viability assay in PANC-1 cells, Cmpnd + 100 ng/ml TNFa): 0.054 µM; IC50 (PANC-1 cells, + 300 ng/ml TRAIL, read-out: IC50 (uM) in cell viability assay in PANC-1 cells, Cmpnd + 300 ng/ml TRAIL): 0.055 µM"
CN[C@@H](C)C(=O)N[C@@H](Cc1ccc(NC(=O)Nc2ccc(C[C@H](NC(=O)[C@H](C)NC)C(=O)N3CCC[C@H]3C(=O)N[C@@H]3CCCc4ccccc43)cc2)cc1)C(=O)N1CCC[C@H]1C(=O)N[C@@H]1CCCc2ccccc21 [Compound P2-38],,,,IC50 [5]: > 1 µM; IC50 [6]: 0.021 µM; IC50 [7]: 0.037 µM
CN[C@@H](C)C(=O)N[C@@H](CCCCCC[C@H](NC(=O)[C@H](C)NC)C(=O)N1CCC[C@H]1CNC(=O)c1ccccc1)C(=O)N1CCC[C@H]1CNC(=O)c1ccccc1 [Compound 16],> 1,> 1,> 1,
CN[C@@H](C)C(=O)N[C@H](C(=O)N1C[C@@H](NC(=O)c2cccc(C(=O)N[C@H]3C[C@@H](C(=O)N[C@@H]4CCCc5ccc(OC)cc54)N(C(=O)[C@@H](NC(=O)[C@H](C)NC)C(C)(C)C)C3)c2)C[C@H]1C(=O)N[C@@H]1CCCc2ccc(OC)cc21)C(C)(C)C [Compound 44],> 1,0.215,0.198,
CN[C@@H](C)C(=O)N[C@H](C(=O)N1CCC[C@H]1c1cc(C(=O)OC)c(-c2cn(CCCCCCn3cc(-c4oc([C@@H]5CCCN5C(=O)[C@@H](NC(=O)[C@H](C)NC)C(C)(C)C)cc4C(=O)OC)c4ccccc43)c3ccccc23)o1)C(C)(C)C [Compound P4-27],,,,IC50 [5]: > 1 µM; IC50 [6]: 0.0243 µM; IC50 [7]: 0.0294 µM
CN[C@@H](C)C(=O)N[C@H](C(=O)N1C[C@@H](NC(=O)CC[C@@H](NC(=O)[C@H](NC(=O)[C@@H](C)NC)C(C)C)C(=O)N[C@@H](C)C(C)C)C[C@H]1C(=O)N[C@H](C)c1ccccc1)C(C)C [Compound 168],> 1,> 1,> 1,
"CN[C@@H](C)C(=O)N[C@H](C(=O)N1C[C@@H](NC(=O)c2cccc(C(=O)N[C@H]3C[C@@H](C(=O)NC4CCOc5ccccc54)N(C(=O)[C@@H](NC(=O)[C@H](C)NC)C(C)(C)C)C3)c2)C[C@H]1C(=O)NC1CCOc2ccccc21)C(C)(C)C (single isomer, unassigned) [Compound 65]",> 1,0.265,0.328,
CN[C@@H](C)C(=O)N[C@H](C(=O)N1C[C@@H](OC(=O)c2cccc(C(=O)O[C@H]3C[C@@H](C(=O)N[C@H]4CCCc5ccccc54)N(C(=O)[C@@H](NC(=O)[C@H](C)NC)C(C)(C)C)C3)c2)C[C@H]1C(=O)N[C@H]1CCCc2ccccc21)C(C)(C)C [Compound P3-105],,,,IC50 [4]: > 1 µM

# More lines, main results first:
IC50 [1] [µM],IC50 [2] [µM],IC50 [3] [µM],SMILES,also measured
> 1,0.299,0.327,CN[C@@H](C)C(=O)N[C@@H](CCCCCC[C@H](NC(=O)[C@H](C)NC)C(=O)N1c2ccccc2C[C@H]1C(=O)N[C@@H]1CCCc2ccccc21)C(=O)N1c2ccccc2C[C@H]1C(=O)N[C@@H]1CCCc2ccccc21 [Compound 93],
> 1,0.04,0.059,CN[C@@H](C)C(=O)N[C@H](C(=O)N1C[C@@H](n2cc(CCC(=O)N[C@@H]3CC(C(=O)N[C@H](C)c4ccccc4)N(C(=O)C(NC(=O)[C@H](CO)NC)C(C)(C)C)C3)nn2)C[C@H]1C(=O)N[C@@H]1CCCc2ccccc21)C(C)(C)C (stereo partly shown) [Compound 205],
